Experimental data reported in PubChem BioAssay AID248 (DTP/NCI, 2004).
Several values for one entry are separate records, joined by “and”; a condition that tells them apart may be missing. Identical values can stand only once. Toxic doses and inconclusive results are not listed. No stated cut-off is given here; in the data, active means T/C of 150% or more; inactive means T/C below 125%.

Tested on: L1210 leukemia ip in BDF1 mice, survival T/C
Test: NCI In Vivo Anticancer Drug Screen. Data for tumor model L1210 Leukemia (intraperitoneal) in B6D2F1 (BDF1) mice
Conditions: endpoint: mean survival time, higher = longer survival
Procedure: The antitumor activity of compounds was measured in mice bearing transplantable tumors. Survival or tumor size were measured and the results are expressed as the measurement made in the treated group (T) divided by the measurement made in the vehicle treated control group (C). The tumor model used in this assay is L1210 Leukemia (intraperitoneal) in B6D2F1 (BDF1) mice

[1] = dose: 100.0 mg/kg/injection, schedule: Q04DX002 (ip), vehicle: saline with Tween-80
[2] = dose: 200.0 mg/kg/injection, schedule: Q04DX002 (ip), vehicle: saline with Tween-80
[3] = dose: 400.0 mg/kg/injection, schedule: Q04DX002 (ip), vehicle: saline with Tween-80
[4] = dose: 100.0 mg/kg/injection, schedule: Q01DX009 (ip), vehicle: saline with Tween-80
[5] = dose: 200.0 mg/kg/injection, schedule: Q01DX009 (ip), vehicle: saline with Tween-80
[6] = dose: 400.0 mg/kg/injection, schedule: Q01DX009 (ip), vehicle: saline with Tween-80
[7] = dose: 100.0 mg/kg/injection, schedule: Q04DX003 (ip), vehicle: saline
[8] = dose: 200.0 mg/kg/injection, schedule: Q04DX003 (ip), vehicle: saline
[9] = dose: 400.0 mg/kg/injection, schedule: Q04DX003 (ip), vehicle: saline
[10] = dose: 100.0 mg/kg/injection, schedule: Q01DX001 (ip), vehicle: saline
[11] = dose: 200.0 mg/kg/injection, schedule: Q01DX001 (ip), vehicle: saline
[12] = dose: 400.0 mg/kg/injection, schedule: Q01DX001 (ip), vehicle: saline
[13] = dose: 100.0 mg/kg/injection, schedule: Q04DX003 (ip), vehicle: saline with Tween-80
[14] = dose: 200.0 mg/kg/injection, schedule: Q04DX003 (ip), vehicle: saline with Tween-80

Measured: T/C

COc1cc(OC)cc(-n2cccc2)c1
inactive: [1] 90 % of control | [2] 97 % of control | [3] 87 % of control

N#CS.[Tl]
inactive: dose: 9.5 mg/kg/injection, schedule: Q01DX001 (ip), vehicle: carboxymethylcellulose (CMC) 92 % of control | dose: 19.0 mg/kg/injection, schedule: Q01DX001 (ip), vehicle: carboxymethylcellulose (CMC) 103 % of control | dose: 38.0 mg/kg/injection, schedule: Q01DX001 (ip), vehicle: carboxymethylcellulose (CMC) 105 % of control

CC(C)c1ccc(/C=N/N=C(N)N)cc1
inactive: dose: 3.8 mg/kg/injection, schedule: Q01DX Z (ip), vehicle: other 100 % of control | dose: 7.5 mg/kg/injection, schedule: Q01DX Z (ip), vehicle: other 102 % of control | dose: 15.0 mg/kg/injection, schedule: Q01DX Z (ip), vehicle: other 94 % of control

CCCC(C=O)(CCN1CCCC1)c1cccc2ccccc12 (stereo not given)
inactive: dose: 25.0 mg/kg/injection, schedule: Q04DX002 (ip), vehicle: saline with Tween-80 100 % of control | dose: 50.0 mg/kg/injection, schedule: Q04DX002 (ip), vehicle: saline with Tween-80 94 % of control | [1] 88 % of control

NC(N)=N/N=C/c1ccc([N+](=O)[O-])cc1
inactive: dose: 15.0 mg/kg/injection, schedule: Q01DX Z (ip), vehicle: saline 95 % of control | dose: 30.0 mg/kg/injection, schedule: Q01DX Z (ip), vehicle: saline 95 % of control | dose: 30.0 mg/kg/injection, schedule: Q01DX Z (oral), vehicle: other 104 % of control | dose: 60.0 mg/kg/injection, schedule: Q01DX Z (ip), vehicle: saline 90 % of control | dose: 60.0 mg/kg/injection, schedule: Q01DX Z (oral), vehicle: other 100 % of control | dose: 120.0 mg/kg/injection, schedule: Q01DX Z (oral), vehicle: other 88 % of control

COc1ccc(C(=O)N/N=C/c2cc(OC)ccc2O)cc1
inactive: dose: 100.0 mg/kg/injection, schedule: Q04DX002 (ip), vehicle: Klucel (hydroxypropylcellulose) (HPC) 110 % of control | dose: 200.0 mg/kg/injection, schedule: Q04DX002 (ip), vehicle: Klucel (hydroxypropylcellulose) (HPC) 104 % of control | dose: 400.0 mg/kg/injection, schedule: Q04DX002 (ip), vehicle: Klucel (hydroxypropylcellulose) (HPC) 100 % of control

O=C(COc1ccc(Cl)cc1)c1ccccc1
inactive: [4] 99 % of control | [5] 87 % of control | [6] 100 % of control

Cc1ncc(CO)c(/C=N/N=C(N)N)c1O
inactive: dose: 30.0 mg/kg/injection, schedule: Q01DX Z (oral), vehicle: methylcellulose (MC) 92 % of control | dose: 120.0 mg/kg/injection, schedule: Q01DX Z (oral), vehicle: methylcellulose (MC) 94 % of control | dose: 240.0 mg/kg/injection, schedule: Q01DX Z (oral), vehicle: methylcellulose (MC) 103 % of control

CN1CCC(CNC(=O)CCCCCCCCC(=O)NCC2(c3ccccc3)CCN(C)CC2)(c2ccccc2)CC1
inactive: dose: 0.63 mg/kg/injection, schedule: Q01DX Z (ip), vehicle: saline 89 % of control | dose: 1.25 mg/kg/injection, schedule: Q01DX Z (ip), vehicle: saline 89 % of control | dose: 2.5 mg/kg/injection, schedule: Q01DX Z (ip), vehicle: saline 88 % of control | dose: 5.0 mg/kg/injection, schedule: Q01DX Z (ip), vehicle: saline 86 % of control | dose: 5.0 mg/kg/injection, schedule: Q04DX003 (ip), vehicle: saline with Tween-80 102 % of control

C/C(N)=C\C#N
inactive: dose: 50.0 mg/kg/injection, schedule: Q01DX001 (ip), vehicle: saline 91 % of control

COc1ccc([P+](=S)SS[P+](=S)c2ccc(OC)cc2)cc1 (stereo not given)
inactive: [1] 101 % of control | [2] 97 % of control

O=C(Cn1ccc(O)cc1=O)N1CCC2(CC1)SSC1(CCN(C(=O)Cn3ccc(O)cc3=O)CC1)S2
inactive: dose: 100.0 mg/kg/injection, schedule: Q01DX009 (ip), vehicle: saline 86 % of control | [7] 102 % of control | dose: 200.0 mg/kg/injection, schedule: Q01DX009 (ip), vehicle: saline 93 % of control | [8] 94 % of control | dose: 400.0 mg/kg/injection, schedule: Q01DX009 (ip), vehicle: saline 94 % of control | [9] 88 % of control

O=c1[nH]nc(N2CCOCC2)c(=O)[nH]1
inactive: [10] 104 % of control | [11] 104 % of control | [12] 96 % of control

COc1ccccc1NC(=S)N(C)C
inactive: [13] 96 % of control | [14] 93 % of control

COc1cc(C=Nc2ccc(-n3ccnc3C)cc2)ccc1N(CCCl)CCCl
inactive: dose: 1.0 mg/kg/injection, schedule: Q01DX009 (ip), vehicle: Klucel (hydroxypropylcellulose) (HPC) 110 % of control | dose: 2.0 mg/kg/injection, schedule: Q01DX009 (ip), vehicle: Klucel (hydroxypropylcellulose) (HPC) 114 % of control | dose: 2.5 mg/kg/injection, schedule: Q01DX009 (ip), vehicle: Klucel (hydroxypropylcellulose) (HPC) 104 % of control and 106 % of control | dose: 3.8 mg/kg/injection, schedule: Q01DX009 (ip), vehicle: Klucel (hydroxypropylcellulose) (HPC) 104 % of control | dose: 5.0 mg/kg/injection, schedule: Q01DX009 (ip), vehicle: Klucel (hydroxypropylcellulose) (HPC) 114 % of control | dose: 8.8 mg/kg/injection, schedule: Q04DX003 (ip), vehicle: Klucel (hydroxypropylcellulose) (HPC) 98 % of control and 123 % of control | dose: 19.0 mg/kg/injection, schedule: Q01DX009 (ip), vehicle: Klucel (hydroxypropylcellulose) (HPC) 110 % of control | dose: 20.0 mg/kg/injection, schedule: Q01DX009 (ip), vehicle: Klucel (hydroxypropylcellulose) (HPC) 124 % of control | dose: 29.0 mg/kg/injection, schedule: Q04DX003 (ip), vehicle: Klucel (hydroxypropylcellulose) (HPC) 102 % of control | dose: 30.0 mg/kg/injection, schedule: Q04DX003 (ip), vehicle: Klucel (hydroxypropylcellulose) (HPC) 104 % of control

O=C1OC(=O)C2C3C=CC(CC3)C12 (stereo not given)
inactive: dose: 100.0 mg/kg/injection, schedule: Q04DX003 (ip), vehicle: Klucel (hydroxypropylcellulose) (HPC) 96 % of control | [7] 98 % of control | dose: 200.0 mg/kg/injection, schedule: Q04DX003 (ip), vehicle: Klucel (hydroxypropylcellulose) (HPC) 100 % of control | [8] 98 % of control

COC1(c2ccccc2)CN(Cc2ccccc2)CCO1 (stereo not given)
inactive: dose: 100.0 mg/kg/injection, schedule: Q01DX009 (ip), vehicle: Klucel (hydroxypropylcellulose) (HPC) 95 % of control | dose: 200.0 mg/kg/injection, schedule: Q01DX009 (ip), vehicle: Klucel (hydroxypropylcellulose) (HPC) 98 % of control

COc1ccc(N2CCN(c3c4c(nc5ccccc35)CCCCC4)CC2)cc1
inactive: [10] 95 % of control | [11] 106 % of control | [12] 101 % of control

Clc1nc2ccccc2[nH]1
inactive: [10] 114 % of control | [11] 105 % of control | [12] 110 % of control

CCOC(=O)C1CCCCC1
inactive: [7] 102 % of control | [8] 98 % of control | [9] 91 % of control

O=C(Nc1ccc(Cl)cc1[N+](=O)[O-])Oc1cc2ccccc2cc1C(=O)Nc1ccccc1
inactive: [4] 100 % of control and 88 % of control | [1] 93 % of control and 94 % of control | [5] 86 % of control and 87 % of control | [2] 94 % of control and 101 % of control | [6] 93 % of control and 96 % of control | [3] 94 % of control and 90 % of control

CC(C(O)c1ccc(F)cc1)C(O)(C(F)(F)F)C(F)(F)F (stereo not given)
inactive: [13] 97 % of control | [14] 98 % of control | dose: 400.0 mg/kg/injection, schedule: Q04DX003 (ip), vehicle: saline with Tween-80 86 % of control

COc1ccc2c(c1OC)C1(CCN(C)C)CC(O)CCC1C=C2 (stereo not given)
inactive: [7] 102 % of control | [8] 102 % of control

O=[N+]([O-])c1ccc(/C=C/c2ccc([N+](=O)[O-])cc2S(=O)(=O)O)c(S(=O)(=O)O)c1
inactive: [7] 94 % of control | [8] 96 % of control | [9] 96 % of control
